Tests used:
[1] = target: APT2 (Homo sapiens, UniProt O95372); type: binding
[2] = target: APT2 triple mutant L78I/A85S/P86Q (Homo sapiens, UniProt O95372, A85S/L78I/P86Q); type: biochemical
[3] = target: APT2-L78I (Homo sapiens, UniProt O95372, L78I); conditions: ResOAc substrate
[4] = cited from earlier work

Sequence of APT2 (O95372 whole entry): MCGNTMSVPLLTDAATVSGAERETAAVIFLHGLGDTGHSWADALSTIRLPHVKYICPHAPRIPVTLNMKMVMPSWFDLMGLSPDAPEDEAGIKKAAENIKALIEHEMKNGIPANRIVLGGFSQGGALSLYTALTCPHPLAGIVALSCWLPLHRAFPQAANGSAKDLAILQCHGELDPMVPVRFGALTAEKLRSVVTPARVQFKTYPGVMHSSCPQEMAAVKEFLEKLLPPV
Sequence of APT2-L78I (O95372 whole entry L78I): as the sequence (O95372 whole entry) above, with L78I counted along it
Sequence of APT2 triple mutant L78I/A85S/P86Q (O95372 whole entry L78I/A85S/P86Q): as the sequence (O95372 whole entry) above, with L78I, A85S, P86Q counted along it

CCCCCCCC/C=C\CCCCCCCC(=O)OC[C@@H](O)COP(=O)([O-])OCC[N+](C)(C)C [1-oleoyl-2-hydroxy-sn-glycero-3-phosphocholine]
IC50 [1]: 4.3 ± 0.4 µM

ML348
potency (in words) [2]: improved ML348 potency
Ki [3]: 5.8 µM

COc1ccc(N2CCN(C(=O)c3cc4c(s3)-c3ccccc3[S+]([O-])C4)CC2)cc1 (stereo not drawn) [ML349-sulfoxide]
binding / inhibition of APT2 (in words) [1]: some residual inhibition

CCCCCCCC/C=C\CCCCCCCC(=O)O [oleic acid]
IC50 [1]: 9.9 ± 0.6 µM
critical micelle concentration (CMC) [4]: 6 µM

From PMC5359770 (ACS chemical biology, 2016)
